Measured values from article PMC12366525, “Characterization of allosteric modulators that disrupt androgen receptor co-activator protein-protein interactions to alter transactivation–Drug leads for metastatic castration resistant prostate cancer” (SLAS discovery : advancing life sciences R & D, 2023).
Entries after “also recorded” stand apart in the source; their conditions may differ.

Tests used:
PSA = experiment: Western blot of PSA expression in C4–2 cells; assay type: cell-based, human; details: for C4-2 cell lysates PSA Western Blot, relative to DMSO (100%): 10 nM DHT 24 h, 20 μM compound 3 h pre-exposure; for Effect on endogenous and DHT-enhanced PSA expression and secretion: C4–2 cells, 20 μM for 3 h prior to DMSO or 10 nM DHT, 24 h
Experimental: Cell lysate protein concentrations were determined in a bicinchoninic acid (BCA) assay. Equal amounts of cell protein were mixed with SDS-PAGE sample buffer and placed in a heat block at 100 °C for 5 min. The protein constituents of C4–2 cells were separated by SDS-PAGE on 10% separating gels, transferred to nitrocellulose membranes and western blots were probed overnight at 4 °C with a 1:1000 dilution of a rabbit anti-hPSA (Cell Signaling, Danvers, MA) primary antibody in Tris-buffered saline (TBS) Tween 20 (TBST) containing 5% non-fat milk. Membranes were washed 3x in TBST for 10 min, then incubated for 1 h at room temperature with a 1:10,000 dilution of the goat anti-rabbit IgG horse radish peroxidase (HRP) conjugated secondary antibody (Invitrogen, Carlsbad, CA) in TBST containing 5% non-fat milk. Western blots were then washed 3x in TBST and developed with Pierce enhanced chemiluminescence (ECL) western blotting substrate (Thermo Fisher Scientific, Waltham, MA). Images of western blot ECL bands were acquired on an iBright 1500 imaging system (Thermo Fisher Scientific, Waltham, MA) and quantified by iBright image analysis software.

AR [1] = biological target: T1, AR (Homo sapiens, UniProt P10275, T878A); experiment: Western blotting cellular thermal shift assay for AR in C4–2 cells; assay type: cell-based; details: 1 h at 37 °C prior to heat shock at 46 °C, hits and enzalutamide 20 μM, DHT 10 nM
T1 construct: DHT-induced full length AR directed TA; endogenous in cells; host or cells: C4–2 castration resistant prostate cancer cells
T1 sequence (P10275 1-920 T878A): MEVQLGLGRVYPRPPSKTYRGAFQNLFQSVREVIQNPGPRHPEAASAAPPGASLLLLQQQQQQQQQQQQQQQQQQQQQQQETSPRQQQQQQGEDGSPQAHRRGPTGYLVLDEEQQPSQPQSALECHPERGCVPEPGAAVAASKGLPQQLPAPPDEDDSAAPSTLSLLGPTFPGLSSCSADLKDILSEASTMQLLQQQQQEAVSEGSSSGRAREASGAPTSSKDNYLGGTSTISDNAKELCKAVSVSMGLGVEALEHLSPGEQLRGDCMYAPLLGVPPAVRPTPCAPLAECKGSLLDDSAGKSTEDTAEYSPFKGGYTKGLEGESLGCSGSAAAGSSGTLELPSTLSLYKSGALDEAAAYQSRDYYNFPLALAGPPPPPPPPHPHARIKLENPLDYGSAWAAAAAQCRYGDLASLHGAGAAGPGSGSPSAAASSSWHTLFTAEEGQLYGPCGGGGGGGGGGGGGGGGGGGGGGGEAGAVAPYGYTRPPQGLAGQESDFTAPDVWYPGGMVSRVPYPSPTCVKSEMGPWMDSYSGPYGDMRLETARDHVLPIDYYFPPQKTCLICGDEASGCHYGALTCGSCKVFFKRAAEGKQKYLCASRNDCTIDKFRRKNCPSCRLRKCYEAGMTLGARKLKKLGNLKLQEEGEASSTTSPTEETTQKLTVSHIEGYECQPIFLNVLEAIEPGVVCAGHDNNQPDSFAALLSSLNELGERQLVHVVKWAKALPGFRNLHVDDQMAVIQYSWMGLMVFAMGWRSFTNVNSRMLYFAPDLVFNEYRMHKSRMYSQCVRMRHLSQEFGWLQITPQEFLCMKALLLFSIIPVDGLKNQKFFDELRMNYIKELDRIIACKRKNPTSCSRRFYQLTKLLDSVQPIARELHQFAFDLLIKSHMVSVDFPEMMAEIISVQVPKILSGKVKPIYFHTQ
Experimental: C4–2 cells were harvested by trypsinization, washed 1x by centrifugation at 270 × g for 5 min and resuspension in PBS, counted, centrifugated at 270 × g for 5 min and resuspended at 7 × 10 [6] cells per mL in Opti-MEM medium (Gibco, Gaithersburg, MD). 50 μL of C4–2 cell suspension (3.5 × 10 [5] cells) were then transferred to PCR tubes that were placed in a T-100 thermocycler (BioRad, Hercules, CA) and a 2 °C interval temperature step gradient from 37 °C to 53 °C was applied. Cells were maintained at each step of the temperature gradient for 5 min and then tubes were withdrawn and placed on ice. 50 μL of cell lysis buffer, 500 mM NaCl, 1% NP-40, 1x protease inhibitor cocktail in PBS were added to the heat shocked cell suspensions in PCR tubes and placed on ice for an additional 30 min. […] 45 μL of cell lysis supernatants were mixed with 15 μL of 5x SDS-PAGE sample buffer and placed in a heat block at 100 °C for 5 min. The protein constituents of heat shocked C4–2 cell lysis supernatants were separated by SDS-PAGE on 8% separating gels, transferred to nitrocellulose membranes that were blocked for 1 h at room temperature in 5% non-fat milk in TBST, and then probed overnight at 4 °C with a 1:1000 dilution of either rabbit anti-AR (Cell Signaling, Danvers, MA) or rabbit anti-TIF2 (Bethyl Laboratories, Waltham, MA) primary antibodies in TBST containing 5% non-fat milk. Membranes were then washed 3x in TBST buffer for 10 min, then incubated with a 1:10,000 dilution of the goat anti-rabbit IgG HRP conjugated secondary antibody (Invitrogen, Carlsbad,CA) in TBST containing 5% non-fat milk for 1 h at room temperature. Western blots were then washed 3x in TBST buffer and developed with Pierce ECL western blotting substrate. Images of ECL western blots were acquired on an iBright 1500 imaging system and quantified using the iBright image analysis software.

AR [2] = biological target: T1, AR; experiment: AlphaScreen cellular thermal shift assay (CETSA) for AR in C4–2 cells; assay type: cell-based; details: for Effect on AR thermal stability, AlphaScreen CETSA: 1 h at 37 °C prior to heat shock at 46 °C, hits and enzalutamide 20 μM, DHT 10 nM; for Effect on maximum efficacy of DHT-enhanced AR thermal stabilization / Right shift of the DHT EC50 for AR thermal stabilization: 20 or 50 μM compound pre-treatment
Experimental: Mouse anti-hAR (BD Biosciences, San Jose, CA) and rabbit anti-hAR (MilliporeSigma, Burlington, MA) were diluted 1:330 and 1:1000 fold respectively in PBS containing 0.5 mg/mL BSA and 4 μL of the combined diluted AR antibody pair were added to 4 μL of the cell lysate supernatant in a 384-well plate and incubated in the dark for 30 min at room temperature. To each well of the 384-well plate 4 μL of a combined solution of anti-mouse IgG Alpha Donor and anti-rabbit IgG (Fc specific) AlphaLISA Acceptor beads suspended in 1x lysis buffer was added to yield a final donor and acceptor bead concentrations of 40 μg/mL and 10 μg/mL respectively.

HEK 293 cells = experiment: M2H viability counter screen; assay type: cell-based; details: cytotoxicity counter screen; read-out: M2H viability CS GI50

Right shift of the DHT EC50 for AR thermal stabilization (AR [2]) [fold]	Structure (SMILES)	C4-2 cell lysates PSA Western Blot, relative to DMSO (100%) (PSA) [%]	Effect on endogenous and DHT-enhanced PSA expression and secretion (PSA)	Effect on AR thermal stability, western blot CETSA (AR [1])	Effect on AR thermal stability, AlphaScreen CETSA (AR [2])	GI50 (HEK 293 cells) [µM]	Effect on maximum efficacy of DHT-enhanced AR thermal stabilization (AR [2])
	Cc1ccccc1-c1cc(O)c2c(c1)CN(c1nc(C(N)=O)cs1)CCO2 [S1–1]	22.1	substantially reduced both endogenous and DHT-enhanced PSA expression and secretion	did not stabilize AR, but blocked DHT-enhanced AR stabilization; also recorded: only partially blocked DHT-enhanced AR stabilization	did not stabilize AR in the AlphaScreen assay but blocked DHT-enhanced AR thermal stabilization		
	Cc1ccccc1-c1cc(O)c2c(c1)CN(c1nccs1)CCO2 [S1–3]					> 100	
> 10	Cc1nsc(NC(=O)N2CCC(Sc3ccccc3C)CC2)n1 [S2–6]	0.9	substantially reduced both endogenous and DHT-enhanced PSA expression and secretion	did not stabilize AR, but blocked DHT-enhanced AR stabilization; also recorded: blocked DHT-enhanced AR thermal stabilization below DMSO baseline levels	did not stabilize AR in the AlphaScreen assay but blocked DHT-enhanced AR thermal stabilization		reduced the maximum efficacy of DHT-enhanced AR thermal stabilization
≥ 10	Cc1c(-c2ccccc2F)[nH]c2ccc(CNC(=O)CCc3cn[nH]c3)cc12 [S3–11]	22.8	substantially reduced both endogenous and DHT-enhanced PSA expression and secretion	did not stabilize AR, but blocked DHT-enhanced AR stabilization; also recorded: only partially blocked DHT-enhanced AR stabilization	did not stabilize AR in the AlphaScreen assay but blocked DHT-enhanced AR thermal stabilization		at 50 μM reduced the maximum efficacy of DHT
